In brackets after ≈: the same amount, converted by molar mass.
Legend:
[1] = test system: Staphylococcus epidermidis ATCC 12228; assay: Broth microdilution MIC/MBC; conditions: ATCC12228
[2] = test system: Micrococcus luteus ATCC 10240; assay: Broth microdilution MIC/MBC
[3] = test system: Candida albicans ATCC 10231; assay: Broth microdilution MIC/MFC; format: cell-based; conditions: for MFC: ATCC10231, read-out: MFC; for MIC: ATCC10231, read-out: MIC
Text: (§1) Procedures of in vitro antimicrobial assays are described in Supplementary Materials.
(§2) 2. Microbiology – in vitro antimicrobial activity assays […]
(§3) using the broth microdilution method according to the European Committee on Antimicrobial Susceptibility Testing (EUCAST) and Clinical and Laboratory Standards Institute guidelines against a panel of reference and clinical or saprophytic strains of mi croorganisms, including the Gram-positive bacteria: Staphylococcus aureus ATCC 43300 (Methi-cillin Resistant S. aureus – MRSA), Staphylococcus aureus ATCC 29213 (Methicillin Susceptible S. aureus – MSSA), Staph-ylococcus epidermidis ATCC 12228, Micrococcus luteus ATCC 10240, Bacillus subtilis ATCC 6633 and Bacillus cereus ATCC 10876), Gram-negative bacteria: Bordetella bronchiseptica ATCC 4617, Escherichia coli ATCC 25922, Klebsiella pneumoniae ATCC 13883, Proteus mirabilis ATCC 12453, Salmonella typhimurium ATCC 14028 and Pseudomonas aeruginosa ATCC 9027, and fungi belonging to yeasts: Candida albicans ATCC 10231, Candida albicans ATCC 2091, Candida parapsilosis ATCC 22019, Candida glabrata ATCC 90030 and Candida krusei ATCC 14243. The microorganisms belonging to ATCC originated from American Type Culture Collection, routinely used for the evaluation of antimicrobials. All the used microbial cultures were first subcultured on nutrient agar or Sabouraud agar at 35°C for 18-24 h or 30°C for 24-48 h for bacteria […]
(§4) The surface of Mueller-Hinton agar (for bacteria) and RPMI 1640 with MOPS (for fungi) were inoculated with the suspensions of bacterial or fungal species. Microbial suspensions were prepared in sterile saline with an optical density of McFarland standard scale 0.5. The samples containing the compounds were dissolved in dimethyl sulfoxide (DMSO).
(§5) Furthermore, the bacterial and fungal suspensions put onto the Petri dishes with solid media containing 2 mg/mL of the tested compounds followed were incubated at 37°C for 24h and 30°C for 48h for bacteria and fungi, respectively.
(§6) The inhibition of microbial growth was estimated comparing with a control culture prepared without any tested sam- […]
(§7) antifungal compounds, respectively.
(§8) Subsequently, MIC (Minimal Inhibitory Concentration) of the compounds was examined by the microdilution broth method, using their two-fold dilutions in Mueller-Hinton broth (for bacteria) and RPMI 1640 broth with MOPS (for fungi) prepared in the 96-well polystyrene plates. The final concentrations of the compounds ranged from 1000 to 0.488 µg/mL. Microbial suspensions were prepared in 0.85% NaCl with an optical density of 0.5 McFarland standard. Next each bacterial or fungal suspension was added per each well containing broth and various concentrations of the exam-ined compounds. After incubation, the MIC was assessed spectrophotometrically as the lowest concentration of the […]
(§9) Appropriate DMSO, growth and sterile controls were carried out. The medium with no tested substances was used as a control The MBC (Minimal Bactericidal Concentration) and MFC (Minimal Fungicidal Concentration) are defined as the lowest concentration of the compounds that is required to kill a particular bacterial or fungal species. The MBC/MFC was determined by removing the culture used for the MIC determination from each well and spotted onto the appro-priate agar medium. The plates were incubated under appropriate conditions for bacteria and fungi. The lowest com-pounds concentration with no visible growth observed was assessed as a bactericidal/fungicidal concentration. All the experiments were repeated three times and the representative data are presented.
(§10) 1. European Committee for Antimicrobial Susceptibility Testing (EUCAST) Determination of minimum inhibitory con-centrations (MICs) of antibacterial agents by broth dilution. EUCAST discussion document E. Dis 5.1. Clin. Microbiol.
(§11) 2. Clinical and Laboratory Standards Institute. Reference method for broth dilution antifungal susceptibility testing of […]

[4] = test system: Candida albicans ATCC 2091; assay: Broth microdilution MIC/MFC; format: cell-based; conditions: for MFC: ATCC2091, read-out: MFC; for MIC: ATCC2091, read-out: MIC
Text: as §1, §2, §3, §4, §5, §6, §7, §8, §9, §10, §11

[5] = test system: Candida parapsilosis ATCC 22019; assay: Broth microdilution MIC/MFC; format: cell-based; conditions: Lodderomyces parapsilosis; for MFC: ATCC22019, read-out: MFC; for MIC: ATCC22019, read-out: MIC
Text: as §1, §2, §3, §4, §5, §6, §7, §8, §9, §10, §11

[6] = test system: Candida glabrata ATCC 90030; assay: Broth microdilution MIC/MFC; format: cell-based; conditions: Nakaseomyces glabratus; for MFC: ATCC90030, read-out: MFC; for MIC: ATCC90030, read-out: MIC
Text: as §1, §2, §3, §4, §5, §6, §7, §8, §9, §10, §11

[7] = test system: Candida krusei ATCC 14243; assay: Broth microdilution MIC/MFC; format: cell-based; conditions: Pichia kudriavzevii; for MIC: ATCC14243, read-out: MIC
Text: as §1, §2, §3, §4, §5, §6, §7, §8, §9, §10, §11

[8] = test system: Staphylococcus aureus ATCC 43300; assay: Broth microdilution MIC/MBC; conditions: ATCC43300 / MRSA
[9] = test system: Staphylococcus aureus ATCC 25923; assay: Broth microdilution MIC/MBC
[10] = test system: Staphylococcus aureus ATCC 29213; assay: Broth microdilution MIC/MBC; conditions: ATCC29213
[11] = test system: Bacillus cereus ATCC 10876; assay: Broth microdilution MIC/MBC
Gram-positive bacteria = assay: Broth microdilution, summary over reference Gram-positive bacteria; format: cell-based; conditions: range over the reference Gram-positive bacteria; read-out: MIC
Text: as §1, §2, §3, §4, §5, §6, §7, §8, §9, §10, §11

Candida spp. = assay: Broth microdilution, summary over reference yeasts; format: cell-based
Text: as §1, §2, §3, §4, §5, §6, §7, §8, §9, §10, §11

[12] = test system: Bacillus subtilis ATCC 6633; assay: Broth microdilution MIC/MBC; conditions: ATCC6633
[13] = test system: Bordetella bronchiseptica ATCC 4617; assay: Broth microdilution MIC/MBC; conditions: ATCC4617
[14] = test system: Escherichia coli ATCC 25922; assay: Broth microdilution MIC/MBC; conditions: ATCC25922
[15] = test system: Klebsiella pneumoniae ATCC 13883; assay: Broth microdilution MIC/MBC; conditions: ATCC13883
[16] = test system: Proteus mirabilis ATCC 12453; assay: Broth microdilution MIC/MBC; conditions: ATCC12453
[17] = test system: Salmonella typhimurium ATCC 14028; assay: Broth microdilution MIC/MBC; conditions: Salmonella enterica
[18] = test system: Pseudomonas aeruginosa ATCC 9027; assay: Broth microdilution MIC/MBC; conditions: ATCC9027
[19] = Staphylococcus aureus, ATCC25923
[20] = range over the reference Candida spp. strains

MIC [1] [µg/mL]	MIC ([2]; Micrococcus luteus, ATCC10240) [µg/mL]	MIC [3] [µg/mL]	MIC [4] [µg/mL]	MIC [5] [µg/mL]	MIC [6] [µg/mL]	MIC [7] [µg/mL]	melting point [°C]	MIC [8] [µg/mL]	MIC [9, 19] [µg/mL]	MIC [10] [µg/mL]	MIC ([11]; Bacillus cereus, ATCC10876) [µg/mL]	MIC [12] [µg/mL]	MIC [13] [µg/mL]	MIC [14] [µg/mL]	MIC [15] [µg/mL]	Compound	MBC [1] [µg/mL]	MBC ([2]; Micrococcus luteus, ATCC10240) [µg/mL]	MFC [5] [µg/mL]	MBC [12] [µg/mL]	other results
> 1000	500 (≈ 1150 µM)	500 (≈ 1150 µM)	1000 (≈ 2300 µM)	1000 (≈ 2300 µM)	250 (≈ 575 µM)	> 1000	281 to 284	> 1000	> 1000	1000 (≈ 2300 µM)	> 1000	500 (≈ 1150 µM)	> 1000	> 1000	> 1000	O=C(N/N=C/c1cc(Cl)cc(Cl)c1O)c1ccc(I)cc1 [Compound 24, N-[(3,5-dichloro-2-hydroxyphenyl)methylidene]-4-iodobenzohydrazide]		> 1000	> 1000	> 1000	MFC [3]: > 1000 µg/mL; MFC [4]: > 1000 µg/mL; MFC [6]: > 1000 µg/mL; MIC [16]: > 1000 µg/mL; MBC [10]: > 2000 µg/mL; MIC [17]: > 1000 µg/mL; MIC [18]: > 1000 µg/mL
1000 (≈ 2440 µM)	31.2 (≈ 76.2 µM)	> 1000	> 1000	250 (≈ 609 µM)	> 1000	> 1000	200 to 207	> 1000	> 1000	> 1000	> 1000	> 1000	> 1000	> 1000	> 1000	CCOc1cccc(/C=N/NC(=O)c2ccc(I)cc2)c1O [Compound 25, N-[(3-ethoxy-2-hydroxyphenyl)methylidene]-4-iodobenzohydrazide]	> 1000	62.5 (≈ 152 µM)	> 1000		MIC [16]: > 1000 µg/mL; MIC [17]: > 1000 µg/mL; MIC [18]: > 1000 µg/mL
3.91 (≈ 16.4 µM)	62.5 (≈ 262 µM)							7.81 (≈ 32.8 µM)	15.6 (≈ 65.6 µM)		7.81 (≈ 32.8 µM)	3.91 (≈ 16.4 µM)	125 (≈ 525 µM)	7.81 (≈ 32.8 µM)	15.6 (≈ 65.6 µM)	O=C1CN(/N=C/c2ccc([N+](=O)[O-])o2)C(=O)N1 [NIT, nitrofurantoin, reference compound]	7.81 (≈ 32.8 µM)	62.5 (≈ 262 µM)		3.91 (≈ 16.4 µM)	MIC ([2]; Micrococcus luteus ATCC 10240): 62.5 (62.5) µg/mL; MIC [16]: 62.5 µg/mL (≈ 262 µM); MIC ([9]; Staphylococcus aureus ATCC 25923): 15.62 (15.62) µg/mL; MBC [9, 19]: 15.6 µg/mL (≈ 65.6 µM); MBC ([11]; Bacillus cereus ATCC 10876): 15.62 µg/mL (≈ 65.6 µM); MBC ([11]; Bacillus cereus, ATCC10876): 15.6 µg/mL (≈ 65.6 µM); MIC [17]: 31.2 µg/mL (≈ 131 µM)

Compound	MIC [1] [µg/mL]	MIC ([2]; Micrococcus luteus, ATCC10240) [µg/mL]	MIC [3] [µg/mL]	MIC [4] [µg/mL]	MIC [5] [µg/mL]	MIC [6] [µg/mL]	MIC [7] [µg/mL]	melting point [°C]	MIC [8] [µg/mL]	MIC [9, 19] [µg/mL]	MIC [10] [µg/mL]	MIC ([11]; Bacillus cereus, ATCC10876) [µg/mL]	MIC [12] [µg/mL]	MIC [13] [µg/mL]	MIC [14] [µg/mL]	MIC [15] [µg/mL]	MBC [1] [µg/mL]	MBC ([2]; Micrococcus luteus, ATCC10240) [µg/mL]	MFC [5] [µg/mL]	MBC [12] [µg/mL]	other results
O=C(N/N=C/c1cc(Cl)cc(I)c1O)c1ccccc1I [Compound 12, N-[(5-chloro-2-hydroxy-3-iodophenyl)methylidene]-2-iodobenzohydrazide]	250 (≈ 475 µM)	31.2 (≈ 59.4 µM)	500 (≈ 950 µM)	500 (≈ 950 µM)	1000 (≈ 1900 µM)	250 (≈ 475 µM)	500 (≈ 950 µM)	215 to 220	1000 (≈ 1900 µM)	125 (≈ 237 µM)	1000 (≈ 1900 µM)	500 (≈ 950 µM)	1000 (≈ 1900 µM)				500 (≈ 950 µM)	250 (≈ 475 µM)	> 1000	> 1000	MFC [3]: > 1000 µg/mL; MFC [4]: > 1000 µg/mL; MFC [6]: > 1000 µg/mL; MFC ([7]; ATCC14243, read-out: MFC): > 1000 µg/mL; MBC [8]: > 1000 µg/mL; MBC [9, 19]: > 1000 µg/mL; MBC [10]: > 1000 µg/mL; MBC ([11]; Bacillus cereus, ATCC10876): > 1000 µg/mL; MIC (Gram-positive bacteria): 31.2 to 1000 µg/mL (≈ 59.4 to 1900 µM); MFC (Candida spp.; [20]): ≥ 1000 µg/mL; MIC (Candida spp.; [20]): 250 to 1000 µg/mL (≈ 475 to 1900 µM); antifungal activity in words (Candida spp.; reference yeasts from Candida spp.): moderate or mild
